These results are taken from US20250221979A1, “NOVEL HETEROCYCLIC COMPOUND” (SHOUYAO HOLDINGS (BEIJING) CO., LTD., priority 2022, published 2025).

One data set relates to HCT116 MTAP−/− cells. Description: Inhibition of proliferation of HCT116 MTAP-/- cells (Cell-Titer Glo, 7 days). The format is cell-based. The note with it: Homo sapiens, HCT-116, 168 h (7 days) incubation, read-out: HCT116 MTAP−/− antiproliferative activity IC50. As for the experimental part: The MTAP deficient human colorectal cancer cell line HCT116 MTAP−/− was constructed using CRJSPR Cas9 technology and cultured in DMEM medium supplemented with 10% fetal bovine serum (FBS, purchased from Gibco) and 1% penicillin/streptomycin (P/S, purchased from Thermo Fisher Scientific) at 37° C. with 5% CO2. HCT116 MTAP−/− cells were plated in 96 well plates (#3917, purchased from CORNING) at a concentration of 200 cells/195 μL/well. After 24 h, the compounds were diluted in a 3-fold gradient starting at 10 mM with 100% DMSO (for a total of 10 concentrations), then 4 μL of each concentration was added to 96 μL of serum-free DMEM medium for dilution. 5 μL of diluted compound at each concentration was added to the plated cell suspension and the compound was incubated with the cells for 168 h (7 days) in a cell culture incubator. The medium was then removed and 25 μL of Cell-Titer Glo® (G7570, purchased from Promega) reagent was added. Chemiluminescence values were read on a BMG and data were processed using GraphPad Prism software to calculate IC50 values for inhibition of cell proliferation by the compounds.

Another data set concerns the target human MAT2A enzyme (Homo sapiens (Human), UniProt P31153). Description: In vitro enzymatic inhibition activity assay on MAT2A (PiColorLock phosphate detection). It counts as biochemical. The note with it: purified human MAT2A 10 nM, ATP 50 μM, L-methionine 100 μM, 6 h at 23° C.; read-out: MAT2A inhibitory activity IC50. A digest of the protocol: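 Purified human MAT2A (10 nM) turned L-methionine (100 μM) and ATP (50 μM) into SAM in Tris-HCl pH 7.5 buffer with MgCl2, KCl and DTT for 6 h at 23 °C. Released phosphate was read colorimetrically at 630 nm. IC50 was fitted from an 8-point, 10-fold dilution series.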

Data set [1] in a line: In vivo pharmacokinetic study in CD-1 mice. The note with it: male, mouse, single oral gavage dose of 10 mg/kg, plasma. As for the experimental part: In vivo pharmacokinetic study in CD-1 mice
Twenty-four healthy adult male mice from Beijing Vital River Laboratory Animal Technology Co., Ltd. were used in the study.
CD-1 mice were administered with a single oral gavage dose of 10 mg/kg in a volume of 10 mL/kg at a concentration of 1 mg/mL.
The test article in this project is generally suspended in 0.5% hydroxypropylmethyl cellulose, 0.1% Tween 80 (W/V/V) aqueous solution at the concentration of 1 mg/mL.
Animals dosed by gavage were fasted overnight before the experiment from 16 h before dosing to 4 h after dosing. Blood was collected at 0.25, 0.5, 1, 2, 4, 6, 8, and 24 h after administration successively. The animals were lightly anesthetized with isoflurane. About 0.2 mL of whole blood was collected from the orbital venous plexus using a glass blood collection tube and placed in a sodium heparin anticoagulant tube. The sample was centrifuged at 5200 rpm for 5 min at 4° C. The plasma was transferred to a centrifuge tube and stored at −80° C. until analysis.
Analysis of plasma samples Test compounds and internal standards (warfarin or propranolol) were extracted from mouse plasma using an acetonitrile protein precipitation method and the extracts were analyzed by LC/MS/MS. The measured plasma concentration-time data of individual animals were analyzed using the non-compartmental model of WinNonlin (version 5.2.1, Pharsight) software to obtain the corresponding pharmacokinetic parameters: maximum (peak) plasma drug concentration Cmax; Time to peak Tmax; Half-life T1/2 and area under the plasma concentration-time curve extrapolated to infinite time AUC0-inf.

human MAT2A enzyme, sequence (P31153 whole entry): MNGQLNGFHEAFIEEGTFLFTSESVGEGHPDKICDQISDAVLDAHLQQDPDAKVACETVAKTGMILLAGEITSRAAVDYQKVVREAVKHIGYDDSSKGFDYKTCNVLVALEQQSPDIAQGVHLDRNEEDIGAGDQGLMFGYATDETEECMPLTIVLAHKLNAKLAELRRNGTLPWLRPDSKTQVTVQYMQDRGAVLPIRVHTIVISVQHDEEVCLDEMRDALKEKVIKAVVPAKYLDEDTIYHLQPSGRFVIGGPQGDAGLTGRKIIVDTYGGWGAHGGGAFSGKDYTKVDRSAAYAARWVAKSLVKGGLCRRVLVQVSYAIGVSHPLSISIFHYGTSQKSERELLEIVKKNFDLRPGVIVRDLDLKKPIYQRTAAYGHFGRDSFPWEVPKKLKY

As for `COC(=O)c1c(N)c2ccc(Br)cc2n(-c2ccc(Cl)c3cnccc23)c1=O` [Example 176, methyl amino-1-(8-chloroisoquinolin-5-yl)-7-bromo-2-oxo-1,2-dihydroquinoline-3-carboxylate], the IC50 was determined as 39.2 nM in the data set on HCT116 MTAP−/− cells and 2.74 nM at human MAT2A enzyme.
As for `COC(=O)c1c(N)c2ccc(OC(F)(F)F)cc2n(-c2ccc(N)cc2)c1=O` [Example 379, methyl 4-amino-1-(4-aminophenyl)-2-oxo-7-(trifluoromethoxy)-1,2-dihydroquinoline-3-carboxylate], the IC50 at human MAT2A enzyme was determined as 1.41 nM. In addition, in data set [1], the AUC – broadly, the area under the concentration-time curve, a measure of exposure – came out at 468000 ng·h/mL; the peak level (Cmax) was 18600 ng/mL; the Tmax – broadly, the time at which the peak concentration occurs – came out at 4 h; the half-life (as a rule, how long it takes for the measured level to halve) is 16.5 h.
Take `COC(=O)c1c(N)c2ccc(Br)nc2n(-c2ccc(Cl)cc2)c1=O` [Example 265, methyl 4-amino-7-bromo-1-(4-chlorophenyl)-2-oxo-1,2-dihydro-1,8-naphthyridine-3-carboxylate]: the IC50 stood at 47.3 nM in the data set with HCT116 MTAP−/− cells and 0.94 nM on human MAT2A enzyme.
As to `COC(=O)c1c(N)c2ccc(C(F)(F)F)nc2n(-c2ccc(C)nc2)c1=O` [Example 207, methyl 4-amino-1-(6-methylpyridin-3-yl)-2-oxo-7-(trifluoromethyl)-1,2-dihydro-1,8-naphthyridine-3-carboxylate], the IC50 worked out at 53.2 nM in the data set on HCT116 MTAP−/− cells and 2.17 nM at human MAT2A enzyme.
Consider `COC(=O)c1c(N)c2ccc(Br)cc2n(-c2ccc([C@@H](C)O)cc2)c1=O` [Example 340, methyl 4-amino-7-bromo-1-(4-(1-(R)-hydroxyethyl)phenyl)-2-oxo-1,2-dihydroquinoline-3-carboxylate], for which the figures for the IC50 with HCT116 MTAP−/− cells and at human MAT2A enzyme were 2.1 nM and 1.44 nM, respectively.
For `COC(=O)c1c(N)c2ccc(Br)cc2n(-c2ccc(C)nc2)c1=O` [Example 214, methyl 4-amino-7-bromo-1-(6-methylpyridin-3-yl)-2-oxo-1,2-dihydroquinoline-3-carboxylate], on human MAT2A enzyme, the IC50 is 2.89 nM. For the same compound, in data set [1], the area under the curve (AUC) amounted to 232000 ng·h/mL; the Cmax (in general, the highest concentration seen after dosing) was found to be 28600 ng/mL; the Tmax is 1 h; the half-life was 2.53 h.
With `COC(=O)c1c(N)c2ccc(Br)nc2n(-c2ccc(C(C)O)cc2)c1=O` (centres unmarked) [Example 266, methyl 4-amino-1-(4-(1-hydroxyethyl)phenyl)-7-bromo-2-oxo-1,2-dihydro-1,8-naphthyridine-3-carboxylate], the IC50 was 32.7 nM with HCT116 MTAP−/− cells and 2.37 nM on human MAT2A enzyme.
Take `COC(=O)c1c(N)c2ccc(Br)nc2n(-c2cccc3cnccc23)c1=O` [Example 221, methyl 4-amino-7-bromo-1-(isoquinolin-5-yl)-2-oxo-1,2-dihydro-1,8-naphthyridine-3-carboxylate]: the IC50 is 41.4 nM in the data set on HCT116 MTAP−/− cells and 2.71 nM on human MAT2A enzyme.
In the case of `COC(=O)c1c(N)c2ccc(Br)cc2n(-c2ccc3c(c2)OCO3)c1=O` [Example 92, methyl 4-amino-1-(benzo[d](1,3)dioxol-5-yl)-7-bromo-2-oxo-1,2-dihydroquinoline-3-carboxylate], the figures for the IC50 in the data set on HCT116 MTAP−/− cells and on human MAT2A enzyme were 87.2 nM and 0.83 nM, respectively.
Turning to `COC(=O)c1c(N)c2ccc(Br)cc2n(-c2ccccc2)c1=O` [Example 22, methyl 4-amino-7-bromo-2-oxo-1-phenyl-1,2-dihydroquinoline-3—carboxylate], the IC50 at human MAT2A enzyme was 0.54 nM. Further, in data set [1], the AUC was found to be 25300 ng·h/mL, the peak level (Cmax) was 1920 ng/mL, the time of peak concentration (Tmax) came to 6 h and the half-life is 6.82 h.
Regarding `COC(=O)c1c(N)c2ccc(C(F)(F)F)cc2n(-c2ccc(CO)cc2)c1=O` [Example 86, methyl 4-amino-2-oxo-1-(4-(hydroxymethyl)phenyl)-7-(trifluoromethyl)-1,2-dihydroquinoline-3-carboxylate], the IC50 in the data set on HCT116 MTAP−/− cells was determined as 85.2 nM; at human MAT2A enzyme, 2.37 nM.
Take `COC(=O)c1c(N)c2ccc(Cl)cc2n(-c2ccccc2)c1=O` [Example 15, methyl 4-amino-7-chloro-2-oxo-1-phenyl-1,2-dihydroquinoline-3—carboxylate]: in data set [1], the AUC was 44200 ng·h/mL, the highest level (Cmax) was 3080 ng/mL, the Tmax amounted to 6 h and the half-life is 8.88 h.
For `COC(=O)c1c(N)c2ccc(C(F)(F)F)cc2n(-c2ccc(C(C)O)nc2)c1=O` (centres unmarked) [Example 175, methyl 4-amino-1-(6-(1-hydroxyethyl)pyridin-3-yl)-2-oxo-7-(trifluoromethyl)-1,2-dihydroquinoline-3-carboxylate], the IC50 in the data set on HCT116 MTAP−/− cells was determined as 53.5 nM; on human MAT2A enzyme, 6.25 nM.
For `COC(=O)c1c(N)c2ccc(C(F)(F)F)cc2n(-c2ccc([C@@H](C)O)cc2)c1=O` [Example 272, methyl 4-amino-1-(4-(1-(R)-hydroxyethyl)phenyl)-2-oxo-7-(trifluoromethyl)-1,2-dihydroquinoline-3-carboxylate], the figures for the IC50 in the data set with HCT116 MTAP−/− cells and on human MAT2A enzyme were 16.6 nM and 0.78 nM, respectively.
As to `COC(=O)c1c(N)c2ccc(C(F)(F)F)nc2n(-c2ccc(N)cc2Cl)c1=O` [Example 325, methyl 4-amino-1-(4-amino-2-chlorophenyl)-2-oxo-7-trifluoromethyl-1,2-dihydro-1,8-naphthyridine-3-carboxylate], the IC50 on human MAT2A enzyme amounted to 2.29 nM. Further, in data set [1], the AUC was determined as 452000 ng·h/mL, the peak level (Cmax) was 52800 ng/mL, the Tmax worked out at 1 h and the half-life was 6.81 h.
As to `COC(=O)c1c(N)c2ccc(Br)cc2n(-c2ccc(N)nc2)c1=O` [Example 180, methyl 4-amino-1-(6-aminopyridin-3-yl)-7-bromo-2-oxo-1,2-dihydroquinoline-3-carboxylate], on human MAT2A enzyme, the IC50 came to 0.76 nM. Besides, in data set [1], the AUC was determined as 32800 ng·h/mL, the Cmax stood at 5060 ng/mL, the Tmax worked out at 2.08 h and the half-life is 4.09 h.
Turning to `COC(=O)c1c(N)c2ccc(OC(F)(F)F)cc2n(-c2ccc([C@@H](C)O)cc2)c1=O` [Example 378, methyl 4-amino-1-(4-((1R)-1-hydroxyethyl)phenyl)-2-oxo-7-(trifluoromethoxy)-1,2-dihydroquinoline-3-carboxylate], the IC50 in the data set on HCT116 MTAP−/− cells turned out to be 1.5 nM; on human MAT2A enzyme, 1.2 nM.
`COC(=O)c1c(N)c2ccc(C(F)(F)F)cc2n(-c2ccccc2C)c1=O` [Example 23, methyl 4-amino-7-trifluoromethyl-1-(2-methylphenyl)-2-oxo-1,2-dihydro quinoline-3-carboxylate]: on human MAT2A enzyme, the IC50 was 0.91 nM. For the same compound, in data set [1], the AUC turned out to be 37000 ng·h/mL, the Cmax amounted to 2640 ng/mL, the Tmax was 6 h and the half-life is 6.51 h.
Regarding `COC(=O)c1c(N)c2ccc(Br)cc2n(-c2ccc(N)cc2C)c1=O` [Example 238, methyl 4-amino-1-(4-amino-2-methylphenyl)-7-bromo-2-oxo-1,2-dihydroquinoline-3-carboxylate], the IC50 at human MAT2A enzyme is 1.24 nM. Further, in data set [1], the AUC came out at 591000 ng·h/mL, the Cmax was 37500 ng/mL, the Tmax is 4 h and the half-life is 9.25 h.
For the compound `COC(=O)c1c(N)c2ccc(C(F)(F)F)cc2n(-c2cccc3cnccc23)c1=O` [Example 88, methyl 4-amino-1-(isoquinolin-5-yl)-2-oxo-7-(trifluoromethyl)-1,2-dihydroquinoline-3-carboxylate], at human MAT2A enzyme, the IC50 came to 7.3 nM. In addition, in data set [1], the AUC was 24800 ng·h/mL, the Cmax is 6690 ng/mL, the time of peak concentration (Tmax) amounted to 0.42 h and the half-life is 3.88 h.
For `COC(=O)c1c(N)c2ccc(C(F)(F)F)cc2n(-c2ccc(OC)nc2)c1=O` [Example 212, methyl 4-amino-1-(6-methoxypyridin-3-yl)-2-oxo-7-(trifluoromethyl)-1,2-dihydroquinoline-3-carboxylate], the IC50 on human MAT2A enzyme came out at 2.83 nM.
`COC(=O)c1c(N)c2ccc(C(F)(F)F)cc2n(Cc2ccccc2)c1=O` [Example 29, methyl 4-amino-1-benzyl-2-oxo-7-(trifluoromethyl)-1,2-dihydroquinoline-3-carboxylate]: on human MAT2A enzyme, the IC50 stood at 3.79 nM.
